Test [1] deals with mice subjected to controlled cortical impact injury. The test can be described thus: TUNEL staining of apoptotic cells. It is filed as in vivo. The conditions noted are these: 20 mg/kg ip 10 min after CCI; day 1; vehicle 57.8±6.4%; P<0.01. On the procedure: All animal procedures were approved by the Animal Research Committee at Cheng Hsin General Hospital (Animal permit number […] 101-08), and all procedures complied with the Guide for the Care and Use of Laboratory Animals published by the US National Institutes of Health (NIH Publication No. 85-23, revised 1996). Animals were housed under a 12-h light/dark cycle and at constant temperature (21-25°C) and humidity (45-50%). They were allowed free access to pellet chow and water. TBI in mice was induced by a CCI injury model as previously described. Briefly, 8-week-old male C57BL/6 mice (weighing 22-25 g) were anesthetized through the use of intraperitoneal injection of sodium pentobarbital (65 mg/kg; Rhone Merieux, Harlow, UK) and placed in a stereotaxic frame. A 5 mm craniotomy was performed over the right parietal cortex, centered on the coronal suture and 0.1 mm lateral to the sagittal suture, and injury to dura was avoided. […] Body temperature was monitored throughout the surgery by a rectal probe; temperature was maintained at 37.0±0.5°C using a heated pad. […] To determine the optimal dose of salidroside, a pilot study was performed using 2 different doses (20 and 50 mg/kg) administered 10 min after injury, and neurological deficits and tissue damage were evaluated as the main outcomes. […]

Test [2] has as its system primary cultured cortical neurons. The test can be described thus: MTT cell viability after in vitro neuronal stretch injury. It is filed as cell-based, C57BL/6 mice. The conditions noted are these: added immediately after injury, MTT at 24 h, stretch alone 61.8±1.5%. Here is the method: All culture medium supplies were from Invitrogen (Invitrogen, Carlsbad, CA, USA). Cortical neuronal cells were prepared from embryonic day 15.5 C57BL/6 mice and cultured in serum-free conditions as previously described. Briefly, the cortices were isolated and digested in 0.5 mg/mL papain at 37°C for 15 min, followed by dissociation in Hibernate-A medium (containing B27 supplement) by aspirating trituration. The cells were then plated onto poly-L-lysine-coated 6-well silastic culture plates (Flexcell International Corporation, Hillsborough, NC, USA) at a density of 5×10^4 cells/cm^2 and maintained in Neurobasal medium supplemented with B27, 10 units/mL penicillin, […], and 0.5 mg/mL glutamine. Four days after plating, 50% of the medium was removed and replaced with fresh medium. The cells were cultured at 37°C in a humidified tri-gas incubator (5%O2, 90% N2, and 5% CO2) and were used at day 10 in vitro. The cortical cultures contain mostly neurons and there were <2% of glia cells, as determined by immunohistochemical staining.
Cultures were stretched by rapid deformation of the silastic culture plates (Flexplates), using the Cell Injury Controller II (Custom Design and Fabrication; Virginia Commonwealth University, Richmond, VA, USA) as previously described. This device uses a regulated flow of compressed gas to rapidly pressurize cells cultured on flexible substrates, causing a radial stretch injury. […] This stimulus intensity corresponds to the “moderate stretch” [62]. The primary cultured neurons were treated with 0.1, 1, 10, 20, and 50 µM salidroside, respectively, immediately following injury. The cortical neurons cultured in plain medium served as control. Cell viability analysis was performed 24 h after injury.
The cell viability was determined by assessing the degree of MTT reduction. Briefly, cells were incubated at 37°C for 2 h with MTT (0.5 mg/mL final concentration; Sigma-Aldrich; St. Louis, MO, USA). Afterwards, a solution of anhydrous isopropanol, HCl (0.1 N), and 0.1% Triton X-100 was added for the dissolution of formazan crystal. The optical density was determined at 570 nm using a microplate reader. Cell viability was expressed as a percentage of the control culture. The experiments were repeated 4 times with different batches of primary cultures.

As for `OC[C@H]1O[C@@H](OCCc2ccc(O)cc2)[C@H](O)[C@@H](O)[C@@H]1O` [SALD, salidroside], in test [1], the “TUNEL-positive cells (TUNEL-stained nuclei/DAPI-stained nuclei)” value is 31.0±6.4%. Besides, the “cell survival after stretch injury (relative to control)” value in test [2] (0.1 µM, P>0.05) was 65.3±1.3%; in test [2] (1 µM, P<0.001), 72.5±1.6%; in test [2] (10 µM, P<0.001), 90.9±1.4%; in test [2] (20 µM, P<0.001) it was 91.4±1.4%; in test [2] (50 µM, P<0.001), 90.5±1.4%.
